Read-outs that look alike come from different tables or passages of the source.
Experiments:
[1] = biological target: T1, EIF2AK3 (PERK) catalytic domain (amino acids 536-1116) (Homo sapiens, UniProt Q9NZJ5); experiment: PERK in vitro activity assay (isolated), TR-FRET kinase assay; type: biochemical; conditions: isolated PERK enzyme, 1.5 μM ATP; read-out: Biochemical IC50
T1 construct: EIF2AK3 (PERK) catalytic domain (amino acids 536-1116)
T1 sequence (Q9NZJ5 536-1116): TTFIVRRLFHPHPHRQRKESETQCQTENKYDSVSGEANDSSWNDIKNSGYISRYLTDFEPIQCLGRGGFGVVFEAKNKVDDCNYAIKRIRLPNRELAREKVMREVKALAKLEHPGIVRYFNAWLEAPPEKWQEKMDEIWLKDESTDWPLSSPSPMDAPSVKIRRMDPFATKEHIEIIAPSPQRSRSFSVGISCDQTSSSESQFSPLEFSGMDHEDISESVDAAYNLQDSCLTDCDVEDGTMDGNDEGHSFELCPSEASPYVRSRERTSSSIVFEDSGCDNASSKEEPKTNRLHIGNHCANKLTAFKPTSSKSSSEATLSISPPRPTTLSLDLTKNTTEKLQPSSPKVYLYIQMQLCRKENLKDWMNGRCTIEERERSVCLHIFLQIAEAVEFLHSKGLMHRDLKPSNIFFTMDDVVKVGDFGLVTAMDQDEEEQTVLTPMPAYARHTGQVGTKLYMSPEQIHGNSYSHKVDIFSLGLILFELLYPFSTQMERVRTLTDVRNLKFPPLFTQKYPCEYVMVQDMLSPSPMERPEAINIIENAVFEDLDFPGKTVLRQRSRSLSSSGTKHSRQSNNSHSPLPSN
Method in brief: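 Human PERK catalytic domain (aa 536-1116) phosphorylating 100-200 nM GFP-eIF2a in 50 mM HEPES pH 7.5, 10 mM MgCl2, 1 mM EGTA, 0.01% Brij-35; enzyme-started, 45 min at room temperature. Stopped with 10 mM EDTA, 2 nM Tb-anti-phospho-eIF2a added for 90 min; IC50 from TR-FRET ratios by 4-parameter logistic fit.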

[2] = tested on: GFP-eIF2α in HEK293 cells; experiment: PERK cellular assay, TR-FRET in HEK293-EGFP-eIF2a cells after tunicamycin-induced ER stress; type: cell-based; conditions: HEK293-EGFP-eIF2a cells, tunicamycin 2 hours, read-out: Cellular eIF2α IC50
Method in brief: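 HEK293 cells stably expressing GFP-eIF2α, plated 5000 cells/well overnight, pretreated with inhibitors 30 min at 37 °C, then ER stress induced with tunicamycin […] for 2 h.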

| SMILES | IC50 [1] [µM] | IC50 [2] [µM] | IC50 ([2]; Homo sapiens, HEK293, 2 h) [µM] |
| --- | --- | --- | --- |
| Cc1cccc(C(O)C(=O)Nc2ccc(-c3cn(C)c4nc(C)nc(N)c34)c(F)c2)c1 (stereo not shown) [Example 73, N-(4-(4-amino-2,7-dimethyl-7H-pyrrolo[2,3-d]pyrimidin-5-yl)-3-fluorophenyl)-2-hydroxy-2-(m-tolyl)acetamide] | 0.026 to 0.05 | 0.501 to 1 | – |
| Cc1nc(N)c2c(-c3ccc(NC(=O)C(O)c4ccccc4Cl)cc3F)cn(C)c2n1 (stereo not shown) [Example 70, N-(4-(4-amino-2,7-dimethyl-7H-pyrrolo[2,3-d]pyrimidin-5-yl)-3-fluorophenyl)-2-(2-chlorophenyl)-2-hydroxyacetamide] | 1 to 2 | – | > 5 |
| Cc1cc(NC(=O)Cc2cccc(Cl)c2)ccc1-c1cn(C)c2ncnc(N)c12 [Example 150, N-(4-(4-amino-7-methyl-7H-pyrrolo[2,3-d]pyrimidin-5-yl)-3-methylphenyl)-2-(3-chlorophenyl)acetamide] | 0.001 to 0.025 | – | 0.026 to 0.05 |
| Cn1cc(-c2ccc(NC(=O)C(O)c3cccc(F)c3)cc2Cl)c2c(N)ncnc21 (stereo not shown) [Example 15, N-(4-(4-amino-7-methyl-7H-pyrrolo[2,3-d]pyrimidin-5-yl)-3-chlorophenyl)-2-(3-fluorophenyl)-2-hydroxyacetamide] | 0.026 to 0.05 | 0.051 to 0.1 | – |
| CCc1cccc(C(O)C(=O)Nc2ccc(-c3cn(C)c4nc(C)nc(N)c34)c(C)c2)c1 (stereo not shown) [Example 43, N-(4-(4-amino-2,7-dimethyl-7H-pyrrolo[2,3-d]pyrimidin-5-yl)-3-methylphenyl)-2-(3-ethylphenyl)-2-hydroxyacetamide] | 0.001 to 0.025 | 0.001 to 0.025 | – |
| CCc1cccc(C(O)C(=O)Nc2ccc(-c3cn(C)c4nc(C)nc(N)c34)c(Cl)c2)c1 (stereo not shown) [Example 98, N-(4-(4-amino-2,7-dimethyl-7H-pyrrolo[2,3-d]pyrimidin-5-yl)-3-chlorophenyl)-2-(3-ethylphenyl)-2-hydroxyacetamide] | 0.051 to 0.1 | 0.251 to 0.5 | – |
| CCc1cc(NC(=O)C(O)c2cccc(F)c2)ccc1-c1cn(C)c2nc(C)nc(N)c12 (stereo not shown) [Example 68, N-(4-(4-amino-2-2,7-dimethyl-7H-pyrrolo[2,3-d]pyrimidin-5-yl)-3-ethylphenyl)-2-(3-fluorophenyl)-2-hydroxyacetamide] | 0.001 to 0.025 | 0.026 to 0.05 | – |
| Cc1cc(NC(=O)CC2CC2)ccc1-c1cn(C)c2ncnc(N)c12 [Example 163, N-(4-(4-amino-7-methyl-7H-pyrrolo[2,3-d]pyrimidin-5-yl)-3-methylphenyl)-2-cyclopropyl-acetamide] | > 5 | – | > 5 |
| Cc1cc(NC(=O)C(F)(F)c2ccccc2)ccc1-c1cn(C)c2ncnc(N)c12 [Example 28, N-(4-(4-amino-7-methyl-7H-pyrrolo[2,3-d]pyrimidin-5-yl)-3-methylphenyl)-2,2-difluoro-2-phenylacetamide] | 0.251 to 0.5 | – | 0.501 to 1 |
| Cc1cc(NC(=O)[C@H](N)c2ccccc2)ccc1-c1cn(C)c2ncnc(N)c12 [Example 26, (R)-2-amino-N-(4-(4-amino-7-methyl-7H-pyrrolo[2,3-d]pyrimidin-5-yl)-3-methylphenyl)-2-phenylacetamide] | 0.026 to 0.05 | – | 0.501 to 1 |
| Cc1nc(N)c2c(-c3ccc(NC(=O)C(O)c4cccc(F)c4)cc3Cl)cn(C)c2n1 (stereo not shown) [Example 92, N-(4-(4-amino-2,7-dimethyl-7H-pyrrolo[2,3-d]pyrimidin-5-yl)-3-chlorophenyl)-2-(3-fluorophenyl)-2-hydroxyacetamide] | 0.001 to 0.025 | 0.051 to 0.1 | – |
| Cc1c(-c2cn(C)c3ncnc(N)c23)ccc(NC(=O)C(O)c2cccc(F)c2)c1F (stereo not shown) [Example 117, N-(4-(4-amino-7-methyl-7H-pyrrolo[2,3-d]pyrimidin-5-yl)-2-fluoro-3-methylphenyl)-2-(3-fluorophenyl)-2-hydroxyacetamide] | 0.001 to 0.025 | 0.001 to 0.025 | – |
| COc1cc(NC(=O)C(O)c2cccc(F)c2)ccc1-c1cn(C)c2nc(C)nc(N)c12 (single isomer, unassigned) [Example 105, N-(4-(4-amino-2,7-dimethyl-7H-pyrrolo[2,3-d]pyrimidin-5-yl)-3-methoxyphenyl)-2-(3-fluorophenyl)-2-hydroxyacetamide] | > 5 | > 5 | – |
| Cc1cccc(C(O)C(=O)Nc2ccc(-c3cn(C)c4nc(C)nc(N)c34)c(Cl)c2)c1 (stereo not shown) [Example 95, N-(4-(4-amino-2,7-dimethyl-7H-pyrrolo[2,3-d]pyrimidin-5-yl)-3-chlorophenyl)-2-hydroxy-2-(m-tolyl)acetamide] | 0.051 to 0.1 | 0.251 to 0.5 | – |
| Cn1cc(-c2ccc(NC(=O)C(O)c3cccc(F)c3)cc2Cl)c2c(N)ncnc21 (stereo not shown) [Example 14, N-(4-(4-amino-7-methyl-7H-pyrrolo[2,3-d]pyrimidin-5-yl)-3-chlorophenyl)-2-(3-fluorophenyl)-2-hydroxyacetamide] | 0.001 to 0.025 | 0.001 to 0.025 | – |
| Cc1nc(N)c2c(-c3ccc(NC(=O)C(O)c4cc(F)cc(C(F)(F)F)c4)cc3F)cn(C)c2n1 (stereo not shown) [Example 88, N-(4-(4-amino-2,7-dimethyl-7H-pyrrolo[2,3-d]pyrimidin-5-yl)-3-fluorophenyl)-2-(3-fluoro-5-(trifluoromethyl)phenyl)-2-hydroxyacetamide] | 0.026 to 0.05 | 0.251 to 0.5 | – |
| COc1cc(NC(=O)C(O)c2cccc(F)c2)ccc1-c1cn(C)c2ncnc(N)c12 (stereo not shown) [Example 103, N-(4-(4-amino-7-methyl-7H-pyrrolo[2,3-d]pyrimidin-5-yl)-3-methoxyphenyl)-2-(3-fluorophenyl)-2-hydroxyacetamide] | 0.101 to 0.25 | 2 to 3 | – |
| Cc1cc(NC(=O)C(O)c2cccc(F)c2)c(F)cc1-c1cn(C)c2ncnc(N)c12 (stereo not shown) [Example 119, N-(4-(4-amino-7-methyl-7H-pyrrolo[2,3-d]pyrimidin-5-yl)-2-fluoro-5-methylphenyl)-2-(3-fluorophenyl)-2-hydroxyacetamide] | 0.001 to 0.025 | 0.001 to 0.025 | – |
| Cc1cc(NC(=O)C(C)(O)c2ccccc2)ccc1-c1cn(C)c2ncnc(N)c12 (stereo not shown) [Example 7, N-(4-(4-amino-7-methyl-7H-pyrrolo[2,3-d]pyrimidin-5-yl)-3-methylphenyl)-2-hydroxy-2-phenylpropanamide] | 0.051 to 0.1 | – | 0.101 to 0.25 |
| Cc1cc(F)cc(C(O)C(=O)Nc2ccc(-c3cn(C)c4nc(C)nc(N)c34)c(C)c2)c1 (stereo not shown) [Example 56, N-(4-(4-amino-2,7-dimethyl-7H-pyrrolo[2,3-d]pyrimidin-5-yl)-3-methylphenyl)-2-(3-fluoro-5-methylphenyl)-2-hydroxyacetamide] | 0.001 to 0.025 | 0.001 to 0.025 | – |
| Cc1cc(NC(=O)Cc2cncc3ccccc23)ccc1-c1cn(C)c2ncnc(N)c12 [Example 155, N-(4-(4-amino-7-methyl-7H-pyrrolo[2,3-d]pyrimidin-5-yl)-3-methylphenyl)-2-(isoquinolin-4-yl)acetamide] | 0.026 to 0.05 | – | 0.101 to 0.25 |
| CCc1cc(NC(=O)C(O)c2cccc(F)c2)ccc1-c1cn(C)c2ncnc(N)c12 (stereo not shown) [Example 17, N-(4-(4-amino-7-methyl-7H-pyrrolo[2,3-d]pyrimidin-5-yl)-3-ethylphenyl)-2-(3-fluorophenyl)-2-hydroxyacetamide] | 0.001 to 0.025 | – | 0.001 to 0.025 |
| Cc1nc(N)c2c(-c3ccc(NC(=O)C(O)c4cccc(F)c4)cc3OC(F)(F)F)cn(C)c2n1 (single isomer, unassigned) [Example 21, N-(4-(4-amino-2,7-dimethyl-7H-pyrrolo[2,3-d]pyrimidin-5-yl)-3-(trifluoromethoxy)phenyl)-2-(3-fluorophenyl)-2-hydroxyacetamide] | 0.001 to 0.025 | 0.501 to 1 | – |
| CCc1cccc(C(O)C(=O)Nc2ccc(-c3cn(C)c4nc(C)nc(N)c34)c(F)c2)c1 (stereo not shown) [Example 75, N-(4-(4-amino-2,7-dimethyl-7H-pyrrolo[2,3-d]pyrimidin-5-yl)-3-fluorophenyl)-2-(3-ethylphenyl)-2-hydroxyacetamide] | 0.051 to 0.1 | 1 to 2 | – |
| Cc1cc(NC(=O)Cc2ccccc2C(F)(F)F)ccc1-c1cn(C)c2ncnc(N)c12 [Example 157, N-(4-(4-amino-7-methyl-7H-pyrrolo[2,3-d]pyrimidin-5-yl)-3-methylphenyl)-2-(2-(trifluoromethyl)phenyl)acetamide] | 0.001 to 0.025 | – | 0.051 to 0.1 |
| Cc1cc(NC(=O)C(O)c2cccc(Cl)c2)ccc1-c1cn(C)c2ncnc(N)c12 (stereo not shown) [Example 35, N-(4-(4-amino-7-methyl-7H-pyrrolo[2,3-d]pyrimidin-5-yl)-3-methylphenyl)-2-(3-chlorophenyl)-2-hydroxyacetamide] | 0.001 to 0.025 | – | 0.001 to 0.025 |
